± gives the expanded uncertainty stated by the source.
Settings: Quantum Design PPMS relaxation calorimeter; for molar entropy: 101.33 kPa

O=P([O-])([O-])OP(=O)([O-])[O-].[Fe+2].[Fe+2] [iron(II) pyrophosphate]
molar entropy (1 K, Crystal 2): 0.08421 ± 0.013 J/K/mol | molar entropy (2 K, Crystal 2): 0.1749 ± 0.027 J/K/mol | molar entropy (3 K, Crystal 2): 0.2781 ± 0.043 J/K/mol | molar entropy (4 K, Crystal 2): 0.4026 ± 0.062 J/K/mol | molar entropy (5 K, Crystal 2): 0.5598 ± 0.086 J/K/mol | molar entropy (6 K, Crystal 2): 0.7639 ± 0.12 J/K/mol | molar entropy (7 K, Crystal 2): 1.033 ± 0.16 J/K/mol | molar entropy (8 K, Crystal 2): 1.379 ± 0.21 J/K/mol | molar entropy (9 K, Crystal 2): 1.814 ± 0.28 J/K/mol | molar entropy (10 K, Crystal 2): 2.349 ± 0.085 J/K/mol | molar entropy (11 K, Crystal 2): 2.988 ± 0.11 J/K/mol | molar entropy (12 K, Crystal 2): 3.726 ± 0.14 J/K/mol | molar entropy (13 K, Crystal 2): 4.55 ± 0.16 J/K/mol | molar entropy (14 K, Crystal 2): 5.45 ± 0.2 J/K/mol | molar entropy (15 K, Crystal 2): 6.422 ± 0.23 J/K/mol | molar entropy (16 K, Crystal 2): 7.473 ± 0.27 J/K/mol | molar entropy (17 K, Crystal 2): 8.609 ± 0.31 J/K/mol | molar entropy (18 K, Crystal 2): 9.826 ± 0.35 J/K/mol | molar entropy (19 K, Crystal 1): 11.08 ± 0.4 J/K/mol | molar entropy (20 K, Crystal 1): 12.28 ± 0.44 J/K/mol | molar entropy (25 K, Crystal 1): 16.82 ± 0.61 J/K/mol | molar entropy (30 K, Crystal 1): 20.58 ± 0.74 J/K/mol | molar entropy (35 K, Crystal 1): 24 ± 0.86 J/K/mol | molar entropy (40 K, Crystal 1): 27.36 ± 0.98 J/K/mol | molar entropy (45 K, Crystal 1): 30.72 ± 1.1 J/K/mol | molar entropy (50 K, Crystal 1): 34.14 ± 1.2 J/K/mol | molar entropy (55 K, Crystal 1): 37.63 ± 1.4 J/K/mol | molar entropy (60 K, Crystal 1): 41.21 ± 1.5 J/K/mol | molar entropy (65 K, Crystal 1): 44.87 ± 1.6 J/K/mol | molar entropy (70 K, Crystal 1): 48.62 ± 1.6 J/K/mol | molar entropy (75 K, Crystal 1): 52.44 ± 1.7 J/K/mol | molar entropy (80 K, Crystal 1): 56.32 ± 1.9 J/K/mol | molar entropy (85 K, Crystal 1): 60.25 ± 2 J/K/mol | molar entropy (90 K, Crystal 1): 64.23 ± 2.1 J/K/mol | molar entropy (95 K, Crystal 1): 68.25 ± 2.3 J/K/mol | molar entropy (100 K, Crystal 1): 72.3 ± 2.4 J/K/mol | molar entropy (110 K, Crystal 1): 80.43 ± 2.7 J/K/mol | molar entropy (120 K, Crystal 1): 88.54 ± 2.9 J/K/mol | molar entropy (130 K, Crystal 1): 96.61 ± 3.2 J/K/mol | molar entropy (140 K, Crystal 1): 104.61 ± 3.5 J/K/mol | molar entropy (150 K, Crystal 1): 112.55 ± 3.7 J/K/mol | molar entropy (160 K, Crystal 1): 120.42 ± 4 J/K/mol | molar entropy (170 K, Crystal 1): 128.21 ± 4.2 J/K/mol | molar entropy (180 K, Crystal 1): 135.93 ± 4.5 J/K/mol | molar entropy (190 K, Crystal 1): 143.57 ± 4.7 J/K/mol | molar entropy (200 K, Crystal 1): 151.13 ± 5 J/K/mol | molar entropy (210 K, Crystal 1): 158.6 ± 5.2 J/K/mol | molar entropy (220 K, Crystal 1): 165.99 ± 5.5 J/K/mol | molar entropy (230 K, Crystal 1): 173.3 ± 5.7 J/K/mol | molar entropy (240 K, Crystal 1): 180.51 ± 6 J/K/mol | molar entropy (250 K, Crystal 1): 187.62 ± 6.2 J/K/mol | molar entropy (260 K, Crystal 1): 194.64 ± 6.4 J/K/mol | molar entropy (270 K, Crystal 1): 201.56 ± 6.7 J/K/mol | molar entropy (273.15 K, Crystal 1): 203.72 ± 6.7 J/K/mol | molar entropy (280 K, Crystal 1): 208.38 ± 6.9 J/K/mol | molar entropy (290 K, Crystal 1): 215.1 ± 7.1 J/K/mol | molar entropy (298.15 K, Crystal 1): 220.5 ± 7.3 J/K/mol | molar entropy (300 K, Crystal 1): 221.72 ± 7.3 J/K/mol | Triple point temperature (Crystal 2): 18.96 ± 0.2 K

— the NIST ThermoML archive (doi:10.1016/j.jct.2013.02.001)
